This is an account of results in patent US11702404B2, “GLP-1R modulating compounds” (priority 2019, dated 2023).

The nature of series [1]: Microsomal stability, human liver microsomes (predicted hepatic clearance). The settings on record: predicted from in vitro microsomal stability data.
The next series addresses GLP-1R (Homo sapiens, UniProt P43220). The series can be described thus: GLP-1R activation: cAMP increase in CHO cells stably expressing GLP-1R. It is filed as cell-based.
The mark [2] stands for this setting: cAMP increase, CHO cells stably expressing GLP-1R, 10 point dose response, 30 minutes incubation, read-out: EC50.

Like-named read-outs stand apart in the source and are kept apart here.

Sequence of GLP-1R (P43220 24-463): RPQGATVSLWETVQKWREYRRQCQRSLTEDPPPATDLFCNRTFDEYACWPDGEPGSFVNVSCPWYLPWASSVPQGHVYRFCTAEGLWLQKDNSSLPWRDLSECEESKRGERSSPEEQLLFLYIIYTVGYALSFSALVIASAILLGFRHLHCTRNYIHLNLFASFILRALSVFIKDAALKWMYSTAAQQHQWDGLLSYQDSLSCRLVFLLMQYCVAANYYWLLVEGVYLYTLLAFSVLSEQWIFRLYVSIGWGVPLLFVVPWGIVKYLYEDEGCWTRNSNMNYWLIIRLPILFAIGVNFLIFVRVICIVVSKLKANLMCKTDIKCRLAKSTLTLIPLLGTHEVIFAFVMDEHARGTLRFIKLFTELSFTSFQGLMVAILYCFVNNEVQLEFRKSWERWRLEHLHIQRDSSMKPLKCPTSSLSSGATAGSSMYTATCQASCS

For `CC(=O)N1CCC[C@H](Cn2c(Cc3ccc(-c4cccc(OCc5ccc(C#N)cc5F)n4)cc3F)nc3ccc(C(=O)O)cc32)C1` [Example 488, (R)-1-((1-acetylpiperidin-3-yl)methyl)-2-(4-(6-((4-cyano-2-fluorobenzyl)oxy)pyridin-2-yl)-2-fluorobenzyl)-1H-benzo[d]imidazole-6-carboxylic acid], in series [1], the “Predicted Hepatic Clearance (Pred. Cl.)” value is 10 mL/min/kg. Moreover, on GLP-1R (setting [2]), the EC50 (commonly the concentration that produces a half-maximal response) was found to be 1090 nM.
On the same counts, the results for `COCCn1c(Cc2ccc(-c3cccc(OCc4ccc(C#N)cc4F)n3)cc2OC(F)F)nc2ccc(C(=O)O)cc21` [Example 42, 2-(4-(6-((4-cyano-2-fluorobenzyl)oxy)pyridin-2-yl)-2-(difluoromethoxy)benzyl)-1-(2-methoxyethyl)-1H-benzo[d]imidazole-6-carboxylic acid] are 3.83 mL/min/kg and 38.2 nM.
Regarding `COCCn1c(Cc2cc(F)c(-c3cccc(OCc4ccc(C#N)cc4F)n3)cc2F)nc2ccc(-c3nn[nH]n3)cc21` [Example 104, 4-[[6-[2,5-difluoro-4-[[1-(2-methoxyethyl)-6-(2H-tetrazol-5-yl)benzimidazol-2-yl]methyl]phenyl]-2-pyridyl]oxymethyl]-3-fluoro-benzonitrile], the “Predicted Hepatic Clearance (Pred. Cl.)” value in series [1] was 12.7 mL/min/kg. In addition, the EC50 on GLP-1R (setting [2]) worked out at 21.4 nM.
For the compound `N#CCC1(Cn2c(Cc3cc(F)c(-c4cccc(OCc5ccc(C#N)cc5F)n4)cc3F)nc3ccc(C(=O)O)nc32)CC1` [Example 273, 2-(4-(6-((4-cyano-2-fluorobenzyl)oxy)pyridin-2-yl)-2,5-difluorobenzyl)-3-((1-(cyanomethyl)cyclopropyl)methyl)-3H-imidazo[4,5-b]pyridine-5-carboxylic acid], the “Predicted Hepatic Clearance (Pred. Cl.)” value in series [1] is 7 mL/min/kg. In addition, the EC50 on GLP-1R (setting [2]) was found to be 0.52 nM.
As for `N#Cc1ccc(COc2cccc(-c3ccc(Cc4nc5ccc(C(=O)O)cc5n4Cc4cncn4C4CC4)c(F)c3)c2)c(F)c1` [Example 8, 2-((3′-((4-cyano-2-fluorobenzyl)oxy)-3-fluoro-[1,1′-biphenyl]-4-yl)methyl)-1-((1-cyclopropyl-1H-imidazol-5-yl)methyl)-1H-benzo[d]imidazole-6-carboxylic acid], the “Predicted Hepatic Clearance (Pred. Cl.)” value in series [1] is 4.33 mL/min/kg. In addition, the EC50 at GLP-1R (setting [2]) came out at 26.4 nM.
On to `CCn1nccc1Cn1c(Cc2ccc(-c3cccc(OCc4ccc(C#N)cc4F)n3)c(F)c2)nc2ccc(C(=O)O)cc21` [Example 533, 2-(4-(6-((4-cyano-2-fluorobenzyl)oxy)pyridin-2-yl)-3-fluorobenzyl)-1-((1-ethyl-1H-pyrazol-5-yl)methyl)-1H-benzo[d]imidazole-6-carboxylic acid], for which the “Predicted Hepatic Clearance (Pred. Cl.)” value in series [1] was 10 mL/min/kg. Further, the EC50 at GLP-1R (setting [2]) is 47.1 nM.
The matching figures for `N#Cc1ccc(COc2cccc(-c3cc(F)c(Cc4nc5ccc(C(=O)O)c(F)c5n4C[C@@H]4CCO4)cc3F)n2)c(F)c1` [Example 632]: 1.83 mL/min/kg and 0.24 nM.
Consider `N#Cc1ccc(COc2ncc(F)c(-c3cc(F)c(Cc4nc5c(F)cc(C(=O)O)cc5n4C[C@@H]4CCO4)cc3F)n2)c(F)c1` [Example 886], for which the “Predicted Hepatic Clearance (Pred. Cl.)” value in series [1] is 5.83 mL/min/kg. Further, the EC50 on GLP-1R (setting [2]) was determined as 0.18 nM.
With `N#Cc1cc(F)c(COc2cccc(-c3ccc(Cc4nc5ccc(C(=O)O)cc5n4C[C@@H]4CCO4)c(F)c3)n2)cc1F` [Example 668], the “Predicted Hepatic Clearance (Pred. Cl.)” value in series [1] was 3.67 mL/min/kg. Further, on GLP-1R (setting [2]), the EC50 worked out at 0.56 nM.
As for `N#Cc1ccc(COc2cccc(-c3ccc(Cc4nc5ccc(C(=O)O)cc5n4C4(CF)CC4)c(F)c3)n2)c(F)c1` [Example 381, 2-(4-(6-((4-cyano-2-fluorobenzyl)oxy)pyridin-2-yl)-2-fluorobenzyl)-1-(1-(fluoromethyl)cyclopropyl)-1H-benzo[d]imidazole-6-carboxylic acid], the “Predicted Hepatic Clearance (Pred. Cl.)” value in series [1] is <1.83 mL/min/kg. At GLP-1R (setting [2]), the EC50 stood at 7.43 nM.
As to `COCCn1c(Cc2ccc(-c3cccc(OCc4ccc(C#N)cc4F)n3)cc2-c2ccc(C#N)cc2)nc2ccc(C(=O)O)cc21` [Example 193, 2-((4′-cyano-5-(6-((4-cyano-2-fluorobenzyl)oxy)pyridin-2-yl)-[1,1′-biphenyl]-2-yl)methyl)-1-(2-methoxyethyl)-1H-benzo[d]imidazole-6-carboxylic acid], the “Predicted Hepatic Clearance (Pred. Cl.)” value in series [1] is 6.83 mL/min/kg. Besides, the 50% effective concentration (EC50) at GLP-1R (setting [2]) was 131 nM.
Regarding `COCCn1c(Cc2ccc(-c3cccc(OCc4ccc(C#N)cc4F)n3)cc2C#Cc2cncnc2)nc2ccc(C(=O)O)cc21` [Example 254, 2-(4-(6-((4-cyano-2-fluorobenzyl)oxy)pyridin-2-yl)-2-(pyrimidin-5-ylethynyl)benzyl)-1-(2-methoxyethyl)-1H-benzo[d]imidazole-6-carboxylic acid], in series [1], the “Predicted Hepatic Clearance (Pred. Cl.)” value is <1.83 mL/min/kg. The EC50 at GLP-1R (setting [2]) was 68.6 nM.
Take `CCn1cnnc1Cn1c(Cc2ccc(-c3cccc(OCc4ccc(C#N)cc4F)n3)cc2F)nc2ccc(C(=O)O)cc21` [Example 404, 2-(4-(6-((4-cyano-2-fluorobenzyl)oxy)pyridin-2-yl)-2-fluorobenzyl)-1-((4-ethyl-4H-1,2,4-triazol-3-yl)methyl)-1H-benzo[d]imidazole-6-carboxylic acid]: in series [1], the “Predicted Hepatic Clearance (Pred. Cl.)” value is <1.83 mL/min/kg. Besides, the EC50 at GLP-1R (setting [2]) was found to be 1.71 nM.
The matching figures for `N#Cc1ccc(COc2cccc(-c3ccc(Cc4nc5c(F)cc(C(=O)O)cc5n4CC4(C(F)F)CC4)cc3F)n2)c(F)c1` [Example 288, 2-(4-(6-((4-cyano-2-fluorobenzyl)oxy)pyridin-2-yl)-3-fluorobenzyl)-1-((1-(difluoromethyl)cyclopropyl)methyl)-4-fluoro-1H-benzo[d]imidazole-6-carboxylic acid]: 5.08 mL/min/kg and 0.76 nM.
On the same counts, the results for `N#Cc1ccc(COc2nc(-c3cc(F)c(Cc4nc5ccc(C(=O)O)cc5n4CC4(CF)CC4)cc3F)ncc2F)c(F)c1` [Example 161, 2-(4-(4-((4-cyano-2-fluorobenzyl)oxy)-5-fluoropyrimidin-2-yl)-2,5-difluorobenzyl)-1-((1-(fluoromethyl)cyclopropyl)methyl)-1H-benzo[d]imidazole-6-carboxylic acid] are 3.83 mL/min/kg and 1 nM.
Turning to `COCCn1c(Cc2ccc(-c3cccc(OCC(=O)c4ccccc4)n3)cc2F)nc2ccc(C(=O)O)cc21` [Example 214, 2-(2-fluoro-4-(6-(2-oxo-2-phenylethoxy)pyridin-2-yl)benzyl)-1-(2-methoxyethyl)-1H-benzo[d]imidazole-6-carboxylic acid], the “Predicted Hepatic Clearance (Pred. Cl.)” value in series [1] is 16.3 mL/min/kg. The EC50 at GLP-1R (setting [2]) is 745 nM.
On the same counts, the results for `CC1(Cn2c(Cc3ccc(-c4cccc(OCc5ccc(C#N)cc5F)n4)cc3F)nc3ccc(C(=O)O)nc32)CC1` [Example 18, 2-(4-(6-((4-cyano-2-fluorobenzyl)oxy)pyridin-2-yl)-2-fluorobenzyl)-3-((1-methylcyclopropyl)methyl)-3H-imidazo[4,5-b]pyridine-5-carboxylic acid] are 2.5 mL/min/kg and 3.6 nM.
Take `N#CCC1(Cn2c(Cc3ccc(-c4ccnc(OCc5ccc(C#N)cc5F)n4)c(F)c3)nc3c(F)cc(C(=O)O)cc32)CC1` [Example 303, 2-(4-(2-((4-cyano-2-fluorobenzyl)oxy)pyrimidin-4-yl)-3-fluorobenzyl)-1-((1-(cyanomethyl)cyclopropyl)methyl)-4-fluoro-1H-benzo[d]imidazole-6-carboxylic acid]: in series [1], the “Predicted Hepatic Clearance (Pred. Cl.)” value was 4 mL/min/kg. Also, at GLP-1R (setting [2]), the EC50 turned out to be 1.33 nM.
On to `COCCn1c(Cc2ccc(-c3cccc(OCc4ccc(C#N)cc4)n3)cc2F)nc2ccc(C(=O)O)cc21` [Example 499, 2-(4-(6-((4-cyanobenzyl)oxy)pyridin-2-yl)-2-fluorobenzyl)-1-(2-methoxyethyl)-1H-benzo[d]imidazole-6-carboxylic acid], for which the “Predicted Hepatic Clearance (Pred. Cl.)” value in series [1] is 3.5 mL/min/kg. Besides, it took 8.18 nM to reach a half-maximal effect at GLP-1R (EC50 (nM)) (EC50).
`COCCn1c(Cc2ccc(-c3cccc(OCc4ccc(C#CC(C)(C)O)cc4F)n3)cc2F)nc2ccc(C(=O)O)cc21` [Example 841]: in series [1], the “Predicted Hepatic Clearance (Pred. Cl.)” value is 6.17 mL/min/kg. For the same compound, the EC50 on GLP-1R (setting [2]) stood at 164 nM.
The matching figures for `N#Cc1ccc(COc2cccc(-c3ccc(Cc4nc5ccc(C(=O)O)cc5n4C4COC4)c(F)c3)n2)c(F)c1` [Example 203, 2-(4-(6-((4-cyano-2-fluorobenzyl)oxy)pyridin-2-yl)-2-fluorobenzyl)-1-(oxetan-3-yl)-1H-benzo[d]imidazole-6-carboxylic acid]: 4.83 mL/min/kg and 420 nM.
Consider `COC[C@@H](CF)n1c(Cc2cc(F)c(-c3cccc(OCc4ccc(C#N)cc4F)n3)cc2F)nc2ccc(C(=O)O)cc21` [Example 726], for which the “Predicted Hepatic Clearance (Pred. Cl.)” value in series [1] is 5.5 mL/min/kg. The EC50 on GLP-1R (setting [2]) was determined as 7.26 nM.
In the case of `N#Cc1ccc(COc2nccc(-c3cc(F)c(Cc4nc5ccc(C(=O)O)cc5n4CC4(CF)CC4)cc3F)n2)c(F)c1` [Example 431, 2-(4-(2-((4-cyano-2-fluorobenzyl)oxy)pyrimidin-4-yl)-2,5-difluorobenzyl)-1-((1-(fluoromethyl)cyclopropyl)methyl)-1H-benzo[d]imidazole-6-carboxylic acid], the “Predicted Hepatic Clearance (Pred. Cl.)” value in series [1] was 3.83 mL/min/kg. Also, on GLP-1R (setting [2]), the EC50 was determined as 0.73 nM.
As to `COCCn1c(Cc2ccc(-c3conc3OCc3ccc(C#N)cc3F)cc2F)nc2ccc(C(=O)O)cc21` [Example 80, 2-(4-(3-((4-cyano-2-fluorobenzyl)oxy)isoxazol-4-yl)-2-fluorobenzyl)-1-(2-methoxyethyl)-1H-benzo[d]imidazole-6-carboxylic acid], the “Predicted Hepatic Clearance (Pred. Cl.)” value in series [1] was 5.17 mL/min/kg. Besides, the half-maximal effective concentration (EC50) on GLP-1R (setting [2]) worked out at 2630 nM.
Take `COCCn1c(Cc2ccc(-c3cccc(OCc4ccc(C#N)cc4F)n3)cc2)nc2ccc(C(=O)O)cc21` [Example 1, 2-(4-(6-((4-Cyano-2-fluorobenzyl)oxy)pyridin-2-yl)benzyl)-1-(2-methoxyethyl)-1H-benzo[d]imidazole-6-carboxylic acid]: the “Predicted Hepatic Clearance (Pred. Cl.)” value in series [1] is 3.3 mL/min/kg. For the same compound, on GLP-1R (setting [2]), the EC50 is 25.4 nM.
